# Literature values as cited in patent US20150182574A1, “COMPOSITIONS AND METHODS FOR ENHANCING MOBILIZATION AND PROLIFERATION OF BLASTOMERE-LIKE STEM CELLS” (Stemtech International, Inc., priority 2012, published 2015).
# Assays:
# [1] = tested on: HSCs; settings: intravenous injection
# [2] = temperature and pH dependent
# [3] = tested on: VSELs; settings: in vivo
molecule,measurement,setting,value
Fucoidan,egress of HSCs from bone marrow into the peripheral blood stream,[1],promote the egress of HSCs
"OC[C@H]1O[C@@H](Oc2c(O)cc(O)cc2C=Cc2ccc(O)cc2)[C@H](O)[C@@H](O)[C@@H]1O [2,3,5,4′-tetrahydroxystilbene-2-O-β-d-glycoside]",stability in aqueous solutions,[2],readily degrade in aqueous solutions
"G-CSF: granulocyte colony-stimulating factor, mobilization agent (protein, UniProt P09919 31-207, looked up) Granulocyte …: TPLGPASSLPQSFLLKCLEQVRKIQGDGAALQEKLVSECATYKLCHPEELVLLGHSLGIPWAPLSSCPSQALQLAGCLSQLHSGLFLYQGLLQALEGISPELGPTLDTLQLDVADFATTIWQQMEELGMAPALQPTQGAMPAFASAFQRRAGGVLVASHLQSFLEVSYRVLRHLAQP",numbers of VSELs in peripheral blood,[3],increase numbers of VSELs in peripheral blood
